Values of other authors, collected in publication PMC8158804 (ACS Omega, 2021).

settings: critical aggregation concentration, fluorimetry, pure water

Row | CAC (−log M) | Substance
1 | 2.66 −log M | AcIIIGVPGVGKKNH2 [IKK11]
2 | 2.58 −log M | AcIIIKGVPGVGKNH2 [IK-K11]
3 | 2.10 −log M | AcKGVPGVGKNH2 [K-K8]
4 | 2.64 −log M | RFRFRF [[RF]3]
5 | 3.52 −log M | RFRFRFRF [[RF]4]
6 | 4.40 −log M | RFRF [[RF]2]
7 | 3.03 −log M | AcIIIKGVPGVGVPGVGKNH2 [IK-K16]

Continued, substance first:

Row | Substance | CAC (−log M)
8 | RFRFRFRFRF [[RF]5] | 4.70 −log M
9 | AcGVPGVGKKNH2 [KK8] | 2.10 −log M
10 | V6K2GRGDS | 4.83 −log M
11 | AcGAAVILRRNH2 | 1.52 −log M
12 | AcIIIGVPGVGVPGVGKKNH2 [IKK16] | 3.13 −log M

settings: critical aggregation concentration, conductivity, pure water

Row | CAC (−log M) | Substance
13 | 3.10 −log M | Ac-GAVILEE-NH2
14 | 2.99 −log M | AcLIIKNH2 [LI2K]
15 | 3.15 −log M | Ac-GAVILEE
